Legend:
Experiment in all cases: 3H-TdR (3H-thymidine) incorporation assay at 72 hr
H-460 = assay type: cell-based, Human; settings: Homo sapiens, NCI-H460, read-out: IC50 H-460 24 h, 24 h drug exposure, wash, another 48 hr; 3H-TdR incorporation at 72 hr
MCF-7 = assay type: cell-based, Human; settings: Homo sapiens, MCF7, read-out: IC50 MCF-7 24 h, 24 h drug exposure, wash, another 48 hr; 3H-TdR incorporation at 72 hr
SF-268 = assay type: cell-based, Human; settings: Homo sapiens, SF-268, read-out: IC50 SF-268 24 h, 24 h drug exposure, wash, another 48 hr; 3H-TdR incorporation at 72 hr
CEM/dCK- = assay type: cell-based; settings: for IC50: Homo sapiens, CCRF-CEM, read-out: IC50 CEM/dCK- 24 h, 24 h drug exposure, wash, another 48 hr, deoxycytidine kinase-deficient CCRF-CEM; for Factor* (Resistance Factor = Ratio of dCK- on Wild-type CCRF-CEM): ratio of IC50 CEM/dCK- to CCRF-CEM, 24 h
Method: (§1) Table of IC50 Values (μM) for Controls
(§2) Exposition of 24 hr to drug, wash, incubated for another 48 hr (total of 72 hr assay)
(§3) (3H-Thymidine Incorporation Assay)

CCRF-CEM = assay type: cell-based; settings: Homo sapiens, CCRF-CEM, read-out: IC50 CCRF-CEM 24 h, 24 h drug exposure, wash, another 48 hr; 3H-TdR incorporation at 72 hr
Method: as §1, §2, §3

| Compound | IC50 (H-460) | IC50 (MCF-7) | IC50 (SF-268) | IC50 (CEM/dCK-) | IC50 (CCRF-CEM) | Factor* (Resistance Factor = Ratio of dCK- on Wild-type CCRF-CEM) (CEM/dCK-) |
| --- | --- | --- | --- | --- | --- | --- |
| COc1ccc(C(OC[C@H]2OC[C@@H](n3ccc(N)nc3=O)O2)(c2ccccc2)c2ccc(OC)cc2)cc1 [Compound 123, 4-AMINO-1-{2-[BIS-(4- METHOXY-PHENYL)-PHENYL- METHOXYMETHYL]- [1,3]DIOXOLAN-4-YL}-1H- PYRIMIDIN-2-ONE] | 1000 nM | 1400 nM | 2000 nM | 15000 nM | 870 nM | 17 |
| CCCCCCOC(=O)OC[C@H]1OC[C@@H](n2ccc(N)nc2=O)O1 [Compound 126, CARBONIC ACID 4-(4- AMINO-2-OXO-2H- PYRIMIDIN-1-YL)- [1,3]DIOXOLAN-2- YLMETHYL ESTER HEXYL ESTER] | 4.1 nM | 2 nM | 8.5 nM | 13000 nM | 1.6 nM | 8,125 |
| CN(C)/C=N/c1ccn([C@@H]2CO[C@H](COC(=O)CC34CC5CC(CC(C5)C3)C4)O2)c(=O)n1 [Compound 129, (2S,4S)-2-(1″- ADMANTANEACETOXY)METHYL -4-(4′-N,N- DIMETHYLAMINOMETHYLENE- CYTOSIN-1′-YL)-1,3- DIOXOLANE] | 150 nM | 20 nM | 200 nM | 15000 nM | 72 nM | 208 |
| CN(C)/C=N/c1ccn([C@@H]2CO[C@H](COC(=O)C(c3ccccc3)c3ccccc3)O2)c(=O)n1 [Compound 130, (2S,4S)-2-(2″- DIPHENYLACETOXYMETHYL)- 4-(4′-N,N- DIMETHYLAMINOMETHYLENE- CYTOSIN-1′-YL)-1,3- DIOXOLANE] | 58 nM | 50 nM | 110 nM | 75000 nM | 57 nM | 1,316 |

Continued, in another order:

| IC50 (H-460) | IC50 (MCF-7) | IC50 (SF-268) | IC50 (CEM/dCK-) | IC50 (CCRF-CEM) | Compound | Factor* (Resistance Factor = Ratio of dCK- on Wild-type CCRF-CEM) (CEM/dCK-) |
| --- | --- | --- | --- | --- | --- | --- |
| 13000 nM | 14000 nM | 49000 nM | 27000 nM | 14000 nM | CC(C)c1ccc(NC(=O)OC[C@H]2OC[C@@H](n3ccc(NC(=O)OCc4ccccc4)nc3=O)O2)cc1 [Compound 124, {1-[2-(4-ISOPROPYL- PHENYLCARBAMOYLOXYMETHY L)-[1,3]DIOXOLAN-4-YL]- 2-OXO-1,2-DIHYDRO- PYRIMIDIN-4-YL}- CARBAMIC ACID BENZYL ESTER] | ˜2 |
| 240 nM | 16 nM | 600 nM | 7000 nM | 72 nM | CC(C)(C)OC(=O)N(CCCCC(C)(C)C(=O)Nc1ccn([C@@H]2CO[C@H](CO)O2)c(=O)n1)Cc1ccccc1 [Compound 125, Benzyl-{5-[1-(2-hydroxymethyl-[1,3]dioxolan-4-yl)-2-oxo-1,2-dihydro-pyrimidin-4-ylcarbamoyl]-5-methyl-hexyl}-carbamic acid tert-butyl ester] | 97 |
| 110 nM | 100 nM | 12 nM | 83000 nM | 21 nM | CC(C)C(NC(=O)OCc1ccccc1)C(=O)OC[C@H]1OC[C@@H](n2ccc(/N=C/N(C)C)nc2=O)O1 (stereo partly drawn) [Compound 131, (2S,4S)-2- (BENZYLOXYCARBONYL-L- VALINOXYMETHYL)-4-(4′- N,N- DIMETHYLAMINOMETHYLENE- CYTOSIN-1′-YL)-1,3- DIOXOLANE] | 3,952 |
| 21 nM | 100 nM | 16 nM | 31000 nM | 27 nM | CN(C)/C=N/c1ccn([C@@H]2CO[C@H](COC(=O)C(C)(C)C)O2)c(=O)n1 [Compound 133, 2,2-Dimethyl-propionic acid 4-[4-(dimethylamino-methyleneamino)-2-oxo-2H-pyrimidin-1-yl]-[1,3]dioxolan-2-ylmethyl ester] | 1,148 |

Reference: patent publication US20030013660A1, “Dioxolane analogs for improved inter-cellular delivery” (Shire BioChem Inc., priority 2000, published 2003)
